Some test systems named below: CAKI-1; HCT-116; HCT-15; IGROV-1; KM-20L2; M19-MEL; MOLT-4; OVCAR-3; OVCAR-5; OVCAR-8; RPMI-8226; SK-MEL-5; SNB-19; SNB-75; SNB-78; SW-620; UACC-257; UO-31; XF498.
What all share (test): growth of human tumour cells (NCI), 48 h

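Assay format: 96-well plates, 48-hour exposure. Abbreviation: GI50, concentration required for 50% inhibition of growth.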 The source made the active and inactive calls. Cut-off read from the data, not from the text of the source: active = GI50 up to about 1.1 µM and inactive = higher.

For `Cc1nc(O)nc(O)c1/C=C/C(=O)O`, the GI50 is > 1000 µM (inactive) with CAKI-1; > 1000 µM (inactive) in the experiment on HCT-116; above 1000 µM with HCT-15; > 1000 µM (inactive) in the experiment with IGROV-1; > 1000 µM (inactive) in the experiment on KM-20L2; > 1000 µM (inactive) in the experiment on M19-MEL. In addition, the GI50 in the experiment with MOLT-4 was > 1000 µM (inactive); in the experiment with OVCAR-3, > 1000 µM (inactive); in the experiment with OVCAR-5, > 891 µM (inactive); in the experiment with OVCAR-8 it was > 1000 µM (inactive); with RPMI-8226, > 1000 µM (inactive); in the experiment on SK-MEL-5 it was > 1000 µM (inactive). In addition, the GI50 with SNB-19, in the experiment with SNB-75, in the experiment with SNB-78, in the experiment on SW-620, in the experiment with UACC-257 and with UO-31 was > 1000 µM (inactive) throughout. The GI50 with XF498 was > 1000 µM (inactive).
`O=C(CCN1CCOCC1)/C(=C/c1ccccc1)c1ccccc1`: the GI50 is 5.14 µM (inactive) in the experiment on CAKI-1; 3.47 µM (inactive) with HCT-116; 2.19 µM with HCT-15; 9.93 µM (inactive) with IGROV-1; 9.82 µM (inactive) in the experiment with KM-20L2; 3.82 µM (inactive) with M19-MEL. The GI50 was 2.03 µM (inactive) with MOLT-4; 3.76 µM (inactive) with OVCAR-3; 16.6 µM (inactive) in the experiment on OVCAR-5; 1.95 µM (inactive) with OVCAR-8; 2 µM (inactive) with RPMI-8226; 8.45 µM (inactive) in the experiment with SK-MEL-5. Further, the GI50 was 11 µM (inactive) in the experiment with SNB-19; 9.14 µM (inactive) in the experiment on SNB-75; 5.51 µM (inactive) with SNB-78; 2.47 µM (inactive) with SW-620; 2.74 µM (inactive) in the experiment on UACC-257; 14 µM (inactive) in the experiment with UO-31. The GI50 in the experiment with XF498 was 6.5 µM (inactive).

Values taken from ChEMBL document CHEMBL1201862, “PubChem BioAssay data set” (2004).
